These results are taken from article doi:10.1101/2022.01.25.477728v2 (biorxiv, 2022).

In the assay the target is T1, TcBDF2 / TcBD2 (TcBDF2HA) (Trypanosoma cruzi, UniProt A0A2V2V5V1).
T1 sequence (A0A2V2V5V1 2-119): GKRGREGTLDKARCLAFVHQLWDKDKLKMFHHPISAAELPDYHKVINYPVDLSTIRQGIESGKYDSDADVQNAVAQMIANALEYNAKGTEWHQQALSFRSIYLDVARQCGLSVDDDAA
Kind of assay: intrinsic tryptophan fluorescence quenching. The assay is classed as binding.

The term Kd denotes a measure of binding affinity in units of concentration. A higher Kd goes with a looser complex. `CCOC(=O)Nc1cc(-c2ccc(C)c(NS(C)(=O)=O)c2)nn2c(C)nnc12` [Bromosporine] showed a Kd of roughly 14 µM.

Regarding `COc1cc(OC)c2c(=O)[nH]c(-c3cc(C)c(OCCO)c(C)c3)nc2c1` [RVX-208], the Kd was greater than 150 µM.

`COc1cc2c(cc1-c1c(C)noc1C)ncc1[nH]c(=O)n([C@H](C)c3ccccn3)c12` [iBET-151] displayed a Kd of roughly 14 µM.
